Measured values published in patent US10280156B2, “Heteroaromatic chalcone derivatives and their medical use” (Medizinische Universität Wien, priority 2014, dated 2019).
Where “and” joins values, the source holds several entries; their conditions need not be identical. Identical values can stand only once.

Key:
Format in all cases: cell-based, human
[1] = system: Jurkat; assay: Viability test on Jurkat cells
Experimental: (§1) JURKAT and CCRF-CEM (T-cell acute lymphoblastic leukemia), HL60 and K562 representing acute and chronic myeloid leukemia, respectively, the chronic lymphocytic leukemia cell line MEC-1, and the diffuse large B-cell lymphoma cell line U-2940 were cultured in Gibco RPMI 1640+GlutaMAX (Life Technologies, Carlsbad, Calif., USA) supplemented with 10% fetal bovine serum gold (FBS gold; PAA Laboratories, Pasching, Austria) and 1% PenStrep (100 U/ml penicillin and 100 μg/ml streptomycin; PAA Laboratories), and maintained at 37° C. in humidified atmosphere with 5% CO2. […]
(§2) All experiments with hematological cell lines were done using phenol red-free RPMI 1640+L-glutamine (PAA Laboratories) supplemented with 1% PenStrep and 10% FBS gold, except experiments with OCI-Ly7 which were carried out in Gibco IMEM+GlutaMAX and 25 mM HEPES containing 20% FBS gold and 1% PenStrep. Cells were incubated in triplicates with increasing concentrations of the compounds for 48 h, changes in viability were determined using the cell proliferation and cytotoxicity assays EZ4U (Biomedica Group, Austria) and CellTiter-Blue Cell Viability Assay (Promega, Madison, Wis., USA) following instructions of the manufacturers. IC50 values were calculated from two independent experiments using GraphPad Prism 5 software. […]

[2] = system: U-2940; assay: Viability test on U-2940 cells, 48 h; details: 48 h incubation; nd = no significant cytotoxic activity up to 100 μM
Experimental: JURKAT and CCRF-CEM (T-cell acute lymphoblastic leukemia), HL60 and K562 representing acute and chronic myeloid leukemia, respectively, the chronic lymphocytic leukemia cell line MEC-1, and the diffuse large B-cell lymphoma cell line U-2940 were cultured in Gibco RPMI 1640+GlutaMAX (Life Technologies, Carlsbad, Calif., USA) supplemented with 10% fetal bovine serum gold (FBS gold; PAA Laboratories, Pasching, Austria) and 1% PenStrep (100 U/ml penicillin and 100 μg/ml streptomycin; PAA Laboratories), and maintained at 37° C. in humidified atmosphere with 5% CO2. The diffuse large B-cell lymphoma cell line OCI-LY7 was cultured in Gibco IMDM+GlutaMAX and 25 mM HEPES (Life Technologies) containing 20% FBS gold and 1% PenStrep.
(§3) All experiments with hematological cell lines were done using phenol red-free RPMI 1640+L-glutamine (PAA Laboratories) supplemented with 1% PenStrep and 10% FBS gold, except experiments with OCI-Ly7 which were carried out in Gibco IMEM+GlutaMAX and 25 mM HEPES containing 20% FBS gold and 1% PenStrep. Cells were incubated in triplicates with increasing concentrations of the compounds for 48 h, changes in viability were determined using the cell proliferation and cytotoxicity assays EZ4U (Biomedica Group, Austria) and CellTiter-Blue Cell Viability Assay (Promega, Madison, Wis., USA) following instructions of the manufacturers. IC50 values were calculated from two independent experiments using GraphPad Prism 5 software.
Initially, compounds were biologically tested in six concentration steps (0.1 μM; 1 μM; 5 μM; 10 μM; 50 μM; and 100 μM) using the CellTiter-Blue Cell Viability Assay (Promega, Madison, Wis., USA) and an incubation time of 48 hours. […] IC50 values were calculated from at least two independent experiments with 3 replicates each. In order to evaluate the biologic activity of the new compounds, cytotoxicity was compared to that of fludarabine, an already approved drug for the treatment of various B-cell malignancies. […] Differences in IC50 values for the different cell types can be explained by the biological and genetic particularities of each subtype of B-cell Non-Hodgkin lymphoma (Stacchini A et al. Leukemia Res 1999, 23, 127-136; Sambade C et al. Int J Cancer 2006, 118, 555-563; Chang H et al. Leukemia lymphoma 1995, 19, 165-171; Tweeddale M E et al. Blood 1987, 69, 1307-1314; Tweeddale M et al. Blood 1989, 74, 572-578).

[3] = system: K562; assay: Viability test on K562 cells; details: already at low concentrations, no further increase of toxicity at increasing concentrations
Experimental: as §1, §2

[4] = system: SU-DHL9; assay: Viability test on SU-DHL9 cells
Experimental: as §3
Hematologic malignancies are highly heterogeneous in their biology and behavior. This and the fact that some patient groups are resistant to therapy underlines the urgent need for new therapeutic drugs. Compound 15 has therefore been tested on other cell lines representing a variety of hematologic neoplasms: two T-cell acute leukemia cell lines (CCRF, Jurkat), two myeloid leukemia cell lines (HL60, K562), and two additional B-cell lines (SU-DHL6, SU-DHL9). Viability was assessed as described in the methods section above. […] An exception was the chronic myeloid leukemia line K562. […]

CCOc1ccccc1C(=O)/C=C/c1cc2ccccc2[nH]1 [Compound 15, 1-(2-Ethoxyphenyl)-3-(1H-indole-2-yl)-2-propen-1-one]
IC50 ([1]; Homo sapiens, T-cell acute leukemia, nd = no significant cytotoxic activity up to 100 μM): 40 nM | viability, % of control ([1]; at concentrations <1 μM): less than 30 % of control | IC50 [2]: 50 nM and 52 nM | viability reduced down to [3]: 60% | IC50 ([4]; Homo sapiens, B-cell lymphoma, nd = no significant cytotoxic activity up to 100 μM): 30 nM | viability, % of control ([4]; SU-DHL9, at concentrations <1 μM): less than 30 % of control
